pIC50, pKd: −log10 of the molar value. *1 amine or outer side, *2 acyl side, *3 side chain or, on linkers, in order; H or OH if unused. Where a SMILES comes first, the peptide text is derived from it. Bridges are numbered along the chain shown (N, C = ends). [ ]: non-standard residue; d: D form. The star is where a group is joined. hPhe(3-Cl-4-CF3) = N[C@@H](CCc1ccc(C(F)(F)F)c(Cl)c1)C(=O)O; NPrPhe(4-CF3) = CCCN[C@@H](Cc1ccc(C(F)(F)F)cc1)C(=O)O; X5 = Cc1ccc(C[C@@H](C(=O)[*:2])N(CCC(C)(C)C)[*:1])cc1; Morpholine(3S-CO) = O=C(O)[C@@H]1COCCN1; NMeGly(cPent) = CN[C@H](C(=O)O)C1CCCC1; Pro(4,4-F2) = O=C(O)[C@@H]1CC(F)(F)CN1; NMeD = CN[C@@H](CC(=O)O)C(=O)O; NMeL = CN[C@@H](CC(C)C)C(=O)O; Morpholide = C1CN(*)CCO1; NMeA = CN[C@@H](C)C(=O)O; Ac5c = NC1(C(=O)O)CCCC1; Aze = O=C(O)[C@@H]1CCN1; Sar = CNCC(=O)O
Legend:
[1] = target: GDP-bound NRAS wild-type protein (Homo sapiens, UniProt P01111); assay: Binding to NRAS by surface plasmon resonance (SPR), KD and KD ratio to KRAS
Sequence of GDP-bound NRAS wild-type protein (P01111 whole entry): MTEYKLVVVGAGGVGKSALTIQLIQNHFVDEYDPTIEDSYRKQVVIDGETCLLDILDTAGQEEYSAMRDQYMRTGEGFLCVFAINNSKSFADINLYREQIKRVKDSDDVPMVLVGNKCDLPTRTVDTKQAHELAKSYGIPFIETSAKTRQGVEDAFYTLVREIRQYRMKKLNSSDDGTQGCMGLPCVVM
Summary of the method: (§1)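 Each cycle, GDP-bound biotin-Avi RAS was captured (~100–300 RU), compound concentrations were injected low to high for 75 s each at 100 µL/min, then the chip was regenerated. Buffer: HBS pH 7.4, 10 mM MgCl2, 10 µM GDP, 1 mM DTT, 4% DMSO; 30°C. KD from a 1:1 binding model.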

[2] = target: GDP-bound KRAS wild-type protein (Homo sapiens, UniProt P01116); assay: Binding to KRAS by surface plasmon resonance (SPR), dissociation constant KD
Sequence of GDP-bound KRAS wild-type protein (P01116 1-188 isoform P01116-2): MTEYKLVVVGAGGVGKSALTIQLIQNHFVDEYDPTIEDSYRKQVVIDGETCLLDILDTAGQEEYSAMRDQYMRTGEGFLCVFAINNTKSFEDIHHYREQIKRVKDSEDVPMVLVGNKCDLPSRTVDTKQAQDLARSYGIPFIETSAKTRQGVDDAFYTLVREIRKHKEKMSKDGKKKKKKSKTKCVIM
Description: Surface plasmon resonance was used to analyze the binding affinity of compounds for KRAS, NRAS, and HRAS. The apparatus used was Biacore 8K, 8K+, or T200 (GE Healthcare), and the running buffer used was HBS (10 mM HEPES-NaOH, 150 mM NaCl, pH 7.4) containing 1 mM DTT, 10 mM MgCl2, 0.01% Tween 20, 10 µM GDP, and 4% DMSO.
Biotinylated Avi-tag fusion KRAS, NRAS, and HRAS proteins were expressed in E. coli BL21 (DE3) strains, and after cells were homogenized, they were purified using Streptavidin Mutein Matrix and Superdex 75. After purification, GDP-loaded KRAS, NRAS, and HRAS proteins were immobilized on the surface of Sensor Chip CAP (Cytiva) coated with Biotin CAPture Reagent in an immobilization amount of about 100 to 300 RU. Binding of each compound was evaluated by the Single Cycle Kinetics method, and a running buffer or a compound solution was added to the RAS protein non-immobilized surface and the immobilized surface to obtain a binding response. The flow rate was set to 100 µL/min, and in the compound-adding cycle, compound solutions having different concentrations were intermittently added for 75 seconds each, starting from a low concentration. […] In the blank cycle, a running buffer was intermittently added and not the compound solution. The Biotin CAPture Reagent and RAS proteins were immobilized for each cycle, and at the end of each cycle, the sensor chip was regenerated by the regeneration solution appended to the Biotin CAPture Kit (Cytiva). Measurement was carried out at 30°C.
The resulting sensorgram was subjected to curve fitting based on a 1:1 binding model on Biacore Insight Evaluation Software or T200 Evaluation Software, and thereby the dissociation constant KD of each compound with respect to KRAS, NRAS, and HRAS was determined. […] Blank indicates a compound from which the KD value with respect to NRAS or HRAS was not obtained.

[3] = system: human lung cancer strain NCI-H441; type: cell-based
Summary of the method: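 Signal came from […] measured per well once the reagent was added. Beforehand, cells were cultured at 37°C and 5% carbon dioxide on a compound series serially diluted in dimethyl sulfoxide.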

HRAS wild-type protein = HRAS wild-type protein (Homo sapiens, UniProt P01112); assay: Binding to HRAS by surface plasmon resonance (SPR), KD and KD ratio to KRAS
Sequence of HRAS wild-type protein (P01112 whole entry): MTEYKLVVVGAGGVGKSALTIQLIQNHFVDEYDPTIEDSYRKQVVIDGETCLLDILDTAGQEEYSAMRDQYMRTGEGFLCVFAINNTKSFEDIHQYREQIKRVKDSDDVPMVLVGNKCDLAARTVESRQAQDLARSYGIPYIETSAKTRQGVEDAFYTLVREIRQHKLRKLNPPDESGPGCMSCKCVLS
Summary of the method: as §1

[4] = ratio of KD for GDP-bound NRAS wild-type protein to KD for KRAS
[5] = ratio of KD for HRAS wild-type protein to KD for KRAS
[6] = ratio of the KD value with respect to GDP-bound NRAS wild-type protein to the KD value with respect to KRAS
[7] = Single Cycle Kinetics, 1:1 binding model
[8] = ratio of the KD value with respect to HRAS wild-type protein to the KD value with respect to KRAS

pKd ([2]; Single Cycle Kinetics) | pIC50 [3] | pKd [2, 7] | pKd ([2]; 1:1 binding model) | SMILES | NRAS /KRAS [1, 4] | HRAS /KRAS (HRAS wild-type protein; [5]) | NRAS /KRAS [1, 6] | HRAS /KRAS (HRAS wild-type protein; [8]) | NRAS /KRAS ([1]; ratio of KD value for GDP-bound NRAS wild-type protein to KD value for KRAS (SPR)) | HRAS /KRAS (HRAS wild-type protein; ratio of KD value for HRAS wild-type protein to KD value for KRAS (SPR))
9.82 | 7.80 |  |  | CCO[C@@H]1C[C@H]2C(=O)NC3(CCC3)C(=O)N(C)[C@@H](C3CCCC3)C(=O)N(C)[C@H](C(=O)N(C)C)CC(=O)N(C)[C@@H](CC(C)C)C(=O)N[C@@H]([C@@H](C)CC)C(=O)N(C)CC(=O)N(C)[C@H]3CCCCCN(C3=O)[C@@H](Cc3ccc(F)cc3)C(=O)N(C)CC(=O)N[C@@H](CCc3ccc(C(F)(F)F)c(Cl)c3)C(=O)N2C1 [PP0972] | B (a compound having 3 or more and less than 10 is denoted as B) | B (a compound having 3 or more and less than 10 is denoted as B) |  |  |  | 
 | 7.07 | 9.04 |  | CCC[C@H]1C(=O)N[C@@H](C2CCCC2)C(=O)N(C)CC(=O)N(C)[C@H]2C/C=C\CCN(C2=O)[C@@H](Cc2ccc(C)cc2)C(=O)N(C)CC(=O)N[C@@H](CCc2ccc(C(F)(F)F)c(Cl)c2)C(=O)N2C[C@H](OCC)C[C@H]2C(=O)NC2(CC(C)(C)C2)C(=O)N(C)[C@@H](CC(C)C)C(=O)N(C)[C@H](C(=O)N(C)C)CC(=O)N1C [PP2190] |  |  | A (a compound having 10 or more and less than 20 is denoted as A) | A (a compound having 10 or more and less than 20 is denoted as A) |  | 
 | 7.62 |  | 9.12 | CC[C@H](C)[C@@H]1NC(=O)[C@H](CC(C)C)N(C)C(=O)C[C@@H](C(=O)N2CCOCC2)N(C)C(=O)[C@H](C2CCCC2)N(C)C(=O)C2(CCCC2)NC(=O)[C@@H]2CCCN2C(=O)[C@H](CCc2ccc(C(F)(F)F)c(Cl)c2)NC(=O)CN(C)C(=O)[C@H](Cc2ccc(C)cc2)N(CCC(C)(C)C)C(=O)[C@@H]2CCN2C(=O)[C@H](C)N(C)C1=O [PP0087] ([NMeL]I[NMeA][Aze][X5][Sar][hPhe(3-Cl-4-CF3)]P[Ac5c][NMeGly(cPent)][NMeD]-Morpholide; lactam N-11) | C (A compound having a KD ratio of 0.1 or more and less than 3 is denoted as C) | C (A compound having a KD ratio of 0.1 or more and less than 3 is denoted as C) |  |  |  | 
9.49 | 7.39 |  |  | CCO[C@@H]1C[C@H]2C(=O)NC3(CCC3)C(=O)N(C)[C@@H](C3CCCC3)C(=O)N(C)[C@H](C(=O)N(C)C)CC(=O)N(C)[C@@H](CC)C(=O)N[C@@H]([C@@H](C)CC)C(=O)N(C)CC(=O)N(C)[C@H]3CCCCCN(C3=O)[C@@H](Cc3ccc(F)c(C)c3)C(=O)N(C)CC(=O)N[C@@H](CCc3cc(F)c(C(F)(F)F)c(F)c3)C(=O)N2C1 [PP0912] | B (a compound having 3 or more and less than 10 is denoted as B) | B (a compound having 3 or more and less than 10 is denoted as B) |  |  |  | 
 | 7.94 |  | 10.04 | CCO[C@@H]1C[C@H]2C(=O)NC3(CC(C)(C)C3)C(=O)N(C)[C@@H](C3CCCC3)C(=O)N(C)[C@H](C(=O)N(C)CC)CC(=O)N(C)[C@@H]([C@@H](C)OC)C(=O)N[C@@H]([C@@H](C)CC)C(=O)N(C)CC(=O)N(C)[C@H]3C/C=C\CCN(C3=O)[C@@H](Cc3ccc(C)cc3)C(=O)N(C)CC(=O)N[C@@H](CCc3cc(F)c(C(F)(F)F)c(F)c3)C(=O)N2C1 [PP3178] | A (a compound having 10 or more and less than 20 is denoted as A) | A (a compound having 10 or more and less than 20 is denoted as A) |  |  |  | 
 | 8.00 | 9.46 |  | CCCN1C(=O)CN(C)C(=O)[C@@H]2CCN2C(=O)[C@H]([C@@H](C)CC)NC(=O)[C@H](CC(C)C)N(C)C(=O)C[C@@H](C(=O)N(C)C)N(C)C(=O)[C@H](C2CCCC2)N(C)C(=O)C2(CCCC2)NC(=O)[C@@H]2CC(F)(F)CN2C(=O)[C@H](CCc2ccc(C(F)(F)F)c(Cl)c2)NC(=O)CN(C)C(=O)[C@@H]1Cc1ccc(C(F)(F)F)cc1 [PP0431] ([NMeL]I[Aze][Sar][NPrPhe(4-CF3)][Sar][hPhe(3-Cl-4-CF3)][Pro(4,4-F2)][Ac5c][NMeGly(cPent)][NMeD]-NMe2; lactam N-11) |  |  | B (a compound having 3 or more and less than 10 is denoted as B) | C (A compound having a KD ratio of 0.1 or more and less than 3 is denoted as C) |  | 
 | 7.53 |  | 9.24 | CCC(CC)[C@H]1C(=O)N(C)[C@H](C(=O)N(C)C)CC(=O)N(C)[C@@H](COC)C(=O)N[C@@H]([C@@H](C)CC)C(=O)N(C)CC(=O)N(C)[C@H]2C/C=C\CCN(C2=O)[C@@H](Cc2ccc(C)cc2)C(=O)N(C)CC(=O)N[C@@H](CCc2ccc(C(F)(F)F)c(Cl)c2)C(=O)N2CCCCC[C@H]2C(=O)NC2(CC(C)(C)C2)C(=O)N1C [PP2966] | A (a compound having 10 or more and less than 20 is denoted as A) | A (a compound having 10 or more and less than 20 is denoted as A) |  |  |  | 
 | 7.12 |  | 8.62 | CCO[C@@H]1C[C@H]2C(=O)NC3(CC(C)(C)C3)C(=O)N(C)[C@@H](C3CCCC3)C(=O)N(C)[C@H](C(=O)N(C)CC)CC(=O)N(C)[C@@H](CC(C)C)C(=O)N[C@@H]([C@@H](C)CC)C(=O)N(C)CC(=O)N(C)[C@H]3C/C=C\CCN(C3=O)[C@@H](Cc3ccc(C(F)F)cc3)C(=O)N(C)CC(=O)N[C@@H](CCc3cc(C)c(C4CC4)c(C)c3)C(=O)N2C1 [PP3148] | A (a compound having 10 or more and less than 20 is denoted as A) | A (a compound having 10 or more and less than 20 is denoted as A) |  |  |  | 
9.77 | 7.59 |  |  | CCO[C@@H]1C[C@H]2C(=O)NC3(CCC3)C(=O)N(C)[C@@H](C3CCCC3)C(=O)N(C)[C@H](C(=O)N(C)C)CC(=O)N(C)[C@@H](CC)C(=O)N[C@@H]([C@@H](C)CC)C(=O)N(C)CC(=O)N(C)[C@H]3CCCCN(C3=O)[C@@H](Cc3ccc(C(F)(F)F)cc3)C(=O)N(C)CC(=O)N[C@@H](CCc3ccc4ccsc4c3)C(=O)N2C1 [PP0888] | C (A compound having a KD ratio of 0.1 or more and less than 3 is denoted as C) | B (a compound having 3 or more and less than 10 is denoted as B) |  |  |  | 
8.92 | 7.19 |  |  | CCO[C@@H]1C[C@H]2C(=O)NC3(CCC3)C(=O)N(C)[C@@H](C3CCCC3)C(=O)N(C)[C@H](C(=O)N(C)C)CC(=O)N(C)[C@@H](Cc3ccccc3C)C(=O)N[C@@H]([C@@H](C)CC)C(=O)N(C)CC(=O)N(C)[C@H]3CCCCCN(C3=O)[C@@H](Cc3ccc(C(F)(F)F)cc3)C(=O)N(C)CC(=O)N[C@@H](CCc3cc(F)c(C(F)(F)F)c(F)c3)C(=O)N2C1 [PP0941] | B (a compound having 3 or more and less than 10 is denoted as B) | B (a compound having 3 or more and less than 10 is denoted as B) |  |  |  | 
 | 7.25 |  | 8.66 | CCCN1C(=O)CN(C)C(=O)[C@@H]2CCN2C(=O)[C@H]([C@@H](C)CC)NC(=O)[C@H](CC(C)C)N(C)C(=O)C[C@@H](C(=O)N2CCOCC2)N(C)C(=O)[C@H](C2CCCC2)N(C)C(=O)C2(CCCC2)NC(=O)[C@@H]2COCCN2C(=O)[C@H](CCc2ccc(C(F)(F)F)c(Cl)c2)NC(=O)CN(C)C(=O)[C@@H]1Cc1ccc(C(F)(F)F)cc1 [PP0313] ([NMeL]I[Aze][Sar][NPrPhe(4-CF3)][Sar][hPhe(3-Cl-4-CF3)][Morpholine(3S-CO)][Ac5c][NMeGly(cPent)][NMeD]-Morpholide; lactam N-11) | B (a compound having 3 or more and less than 10 is denoted as B) | C (A compound having a KD ratio of 0.1 or more and less than 3 is denoted as C) |  |  |  | 
 | 8.52 | 10.51 |  | CCO[C@@H]1C[C@H]2C(=O)N(C)C3(CCC3)C(=O)N(C)[C@@H](C3CCCC3)C(=O)N(C)[C@H](C(=O)N(C)C)CC(=O)N(C)[C@@H](CC3CC3)C(=O)N[C@@H]([C@@H](C)CC)C(=O)N(C)CC(=O)N(C)[C@H]3C/C=C\CCN(C3=O)[C@@H](Cc3ccc(C)cc3)C(=O)N(C)CC(=O)N[C@@H](CCc3cc(F)c(C(F)(F)F)c(F)c3)C(=O)N2C1 [PP1795] |  |  |  |  | A (a compound having 10 or more and less than 20 is denoted as A) | B (a compound having 3 or more and less than 10 is denoted as B)
